molecular target: T1, POLγA:Y955C (Homo sapiens, UniProt P54098, Y955C); assay: DNA polymerization assay, POLγA:Y955C mutant; format: biochemical; conditions: stimulation of polymerase activity, primed M13mp18 ssDNA, 37° C. 2 hours
T1 sequence (P54098 1-1239 Y955C): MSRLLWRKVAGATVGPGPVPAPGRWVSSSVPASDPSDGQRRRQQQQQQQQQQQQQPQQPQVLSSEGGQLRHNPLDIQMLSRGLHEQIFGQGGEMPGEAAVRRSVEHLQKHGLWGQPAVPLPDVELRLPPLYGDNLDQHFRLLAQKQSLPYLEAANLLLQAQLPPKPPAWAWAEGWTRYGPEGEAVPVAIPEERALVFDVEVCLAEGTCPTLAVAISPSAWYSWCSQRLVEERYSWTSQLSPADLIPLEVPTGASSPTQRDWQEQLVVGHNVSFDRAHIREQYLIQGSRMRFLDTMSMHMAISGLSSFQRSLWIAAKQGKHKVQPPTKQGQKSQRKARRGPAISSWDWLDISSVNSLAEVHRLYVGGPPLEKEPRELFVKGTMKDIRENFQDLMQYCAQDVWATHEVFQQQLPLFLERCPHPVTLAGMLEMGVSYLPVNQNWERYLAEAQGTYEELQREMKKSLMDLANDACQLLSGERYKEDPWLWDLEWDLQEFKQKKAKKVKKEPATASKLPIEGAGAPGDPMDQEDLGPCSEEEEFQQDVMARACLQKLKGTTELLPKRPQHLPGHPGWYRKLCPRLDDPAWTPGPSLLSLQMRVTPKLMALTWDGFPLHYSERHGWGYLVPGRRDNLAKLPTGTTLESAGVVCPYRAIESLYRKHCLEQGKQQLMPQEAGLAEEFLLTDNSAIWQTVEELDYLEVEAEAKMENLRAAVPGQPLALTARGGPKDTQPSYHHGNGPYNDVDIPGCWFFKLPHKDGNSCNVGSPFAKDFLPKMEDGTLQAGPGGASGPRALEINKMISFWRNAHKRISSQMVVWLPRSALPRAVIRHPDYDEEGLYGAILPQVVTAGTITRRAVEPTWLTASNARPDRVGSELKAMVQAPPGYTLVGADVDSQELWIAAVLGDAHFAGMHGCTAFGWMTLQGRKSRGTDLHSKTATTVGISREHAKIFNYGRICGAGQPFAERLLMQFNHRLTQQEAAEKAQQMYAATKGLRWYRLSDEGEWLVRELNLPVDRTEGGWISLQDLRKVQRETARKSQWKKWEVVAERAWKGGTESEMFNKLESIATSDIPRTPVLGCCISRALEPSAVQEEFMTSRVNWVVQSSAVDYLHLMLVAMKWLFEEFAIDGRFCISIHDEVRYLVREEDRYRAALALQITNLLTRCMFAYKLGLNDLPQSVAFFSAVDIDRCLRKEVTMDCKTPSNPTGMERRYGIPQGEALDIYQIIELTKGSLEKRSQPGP
T1 sequence (Q9UHN1 1-485 partner): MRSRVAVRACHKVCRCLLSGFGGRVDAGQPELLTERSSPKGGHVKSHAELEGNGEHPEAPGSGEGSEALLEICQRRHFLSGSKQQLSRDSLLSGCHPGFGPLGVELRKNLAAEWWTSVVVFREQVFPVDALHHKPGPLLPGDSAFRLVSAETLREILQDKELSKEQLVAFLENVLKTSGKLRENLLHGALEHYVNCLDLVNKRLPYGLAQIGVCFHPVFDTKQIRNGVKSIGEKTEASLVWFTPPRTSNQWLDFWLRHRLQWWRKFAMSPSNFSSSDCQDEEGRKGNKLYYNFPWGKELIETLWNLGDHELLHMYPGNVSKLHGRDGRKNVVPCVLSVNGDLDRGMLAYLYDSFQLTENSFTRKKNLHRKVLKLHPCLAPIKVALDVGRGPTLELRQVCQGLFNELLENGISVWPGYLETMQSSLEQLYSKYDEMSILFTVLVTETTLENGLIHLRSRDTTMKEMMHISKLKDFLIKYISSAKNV
Protocol: DNA Polymerization Assay to Monitor Effects on Human Wildtype POLγ and Four Disease-Causing Mutant Variants of Human POLγ.
The ability of small molecules to stimulate the polymerase activity of POLγ was analyzed in a quantitative fluorescence SYBR Green I assay with fluorescence intensity (FI) readout.
In the presence of dNTPs, wild type human POLγ and mutant derivatives thereof were incubated with single-stranded, circular M13mp18 ssDNA hybridized to a short DNA oligonucleotide that functions as a primer for initiation of DNA synthesis. POLγ and mutant derivatives thereof will extend the primer and use the M13mp18 molecule as a template to synthesize long stretches of double-stranded DNA. SYBR Green I, which is a double-stranded DNA-binding dye, was used to quantify formation of double-stranded DNA in the reaction. When bound to double-stranded DNA, SYBR Green I fluorescence increases by up to 100-fold.
The assay was performed in the 384-well plate format. Upon addition of compounds, changes in double-stranded DNA synthesis activity can be monitored by following effects on fluorescent intensity.
The reactions also contained the accessory POLγB subunit, and the human mitochondrial single-stranded DNA binding protein (mtSSB).
The DNA template mixture used in the assay contained 0.5 nM primed M13 mp18 ssDNA, 400 nM mtSSB, 0.1 mM Tris-HCl (pH 8.0), 0.1 mM dNTP, 10 mM MgCl2, 0.1 mg/mL BSA, 1 mM TCEP solution, and 0.02% Triton X-100. The DNA template mixture for the wild type protein contained either 100 μM dNTP, 1 μM dNTP, or 0.1 μM dNTP, designated in Table 2 as 100 μM, 1 μM, and 0.1 μM, respectfully.
Microplates with compounds (0.1 μL in each well) to be tested in the assay were prepared from 10 mM compound stocks in 100% DMSO, and equal amounts of DMSO without any compound were added to positive and negative control wells.
The protein mixture was dispensed (5 μL into each well) into compound plates and incubated at 37° C. for 15 minutes. After incubation, 5 μL of the DNA template mixture was dispensed into each well. The plates were then incubated at 37° C. for 2 hours.
During incubation, a combined stop buffer and detection reagent solution was prepared. The buffer contained 25 mM EDTA (pH 8.0), 0.02% Triton X-100, and SYBR Green I [Invitrogen] diluted 10,000× (for fluorescent readout). EDTA will stop the enzymatic reaction by chelating magnesium ions.

| SMILES | AC50 [nM] |
| --- | --- |
| Cc1cc(S(=O)(=O)Nc2ccc3ccn(C)c3c2)c(C)cc1Cl [Example 72, 4-chloro-2,5-dimethyl-N-(1-methyl-1H-indol-6-yl)benzenesulfonamide] | 6000 |
| Cc1nc2ccc(NS(=O)(=O)c3cc(C)c(Cl)cc3C)cc2s1 [Example 73, 4-chloro-2,5-dimethyl-N-(2-methylbenzo[d]thiazol-6-yl)benzenesulfonamide] | 800 |
| Cc1cc(S(=O)(=O)Nc2cccc(-c3ncc(C4CC4)s3)c2)c(C)cc1Cl [Example 76, 4-chloro-N-(3-(5-cyclopropylthiazol-2-yl)phenyl)-2,5-dimethylbenzenesulfonamide] | 2000 |
| Cc1csc(-c2ccccc2NS(=O)(=O)c2cc(C)c(Cl)cc2C)n1 [Example 80, 4-chloro-2,5-dimethyl-N-(2-(4-methylthiazol-2-yl)phenyl)benzenesulfonamide] | > 100000 |
| Cc1cc(S(=O)(=O)Nc2csc(-c3ccccc3)n2)c(C)cc1Cl [Example 81, 4-chloro-2,5-dimethyl-N-(2-phenylthiazol-4-yl)benzenesulfonamide] | 200 |
| Cc1cc(S(=O)(=O)Nc2cccc(-c3ncc(CN(C)C)s3)c2)c(C)cc1Cl [Example 87, 4-chloro-N-(3-(5-((dimethylamino)methyl)thiazol-2-yl)phenyl)-2,5-dimethylbenzenesulfonamide] | 6000 |
| Cc1cc(S(=O)(=O)Nc2cccc(-c3ncc(CO)s3)c2)c(C)cc1Cl [Example 89, 4-chloro-N-(3-(5-(hydroxymethyl)thiazol-2-yl)phenyl)-2,5-dimethylbenzenesulfonamide] | 100 |
